Experiment [1] concerns dogs with signs of BPH. In words: Anti-androgen treatment follow up: serum CPSE level in treated dogs. The experiment is classed as in vivo, dog. How it is done: The CPSE concentration in the serum or plasma samples was determined by sandwich ELISA. 96-well microplates (Stripwell Costar/Corning, N.Y., USA) were coated overnight at +4° C. with monoclonal or polyclonal anti-CPSE antibodies, at a concentration of 5 μg/ml in a carbonate buffer at pH 9.6. After 4 washes, the wells were incubated for 1 hour at 37° C. with a saline phosphate buffer at pH 7.2, while adding 5% bovine serum albumin. Finally, the plates were incubated for 30 minutes at room temperature with a saline phosphate buffer at pH 7.2 to which 10% sucrose was added. Once emptied, the microplates were dried overnight under vacuum, and then packaged in the presence of a desiccant until use.
The assay of samples is carried out by dispensing […] of serum or plasma (heparinized plasma or EDTA plasma) into each of the wells. After 1 hour at 37° C., the microplate is washed. 100 μl of monoclonal or polyclonal anti-CPSE antibodies conjugated to peroxidase are dispensed. The wells are incubated for 1 hr at 37° C. and washed again. The antibodies remaining attached to the walls are developed by adding 3,3′,5,5′tetramethyl benzidine. After completion of the reaction, the absorbance is read at 450 nm.
Five dogs with signs of BPH (see inclusion criteria above) were treated with osaterone acetate (YPOZANE®, Virbac). This molecule is an anti-androgen, which acts on the prostatic parenchyma. The CPSE level was measured at days D15 and D0. The dogs were treated as recommended and were given from 0.25-0.5 mg/kg/day of osaterone acetate, for a period of 7 days. Serum was collected prior to any treatment and after 15 days. The CPSE level was measured in the different samples.
Dogs with signs of PBH were treated with osaterone acetate, as recommended by the manufacturer. The serum CPSE level in these dogs was measured before the treatment and after 15 days.

Experiment [2] relates to dogs with signs of BPH. In words: Anti-androgen treatment follow up: prostate size by digital rectal examination. Format: in vivo, dog. The following applies: all five treated dogs, after treatment.

Several values for one entry are separate records, joined by “and”; a condition that tells them apart may be missing. Equal values may be shown once.

The record followed here is patent US20120009593A1, “ANALYSIS METHOD FOR THE IN VITRO DIAGNOSIS OF BENIGN PROSTATIC HYPERPLASIA (BPH) IN DOGS BY ASSAYING CANINE PROSTATE SPECIFIC ESTERASE, AND BPH TREATMENT FOLLOW UP” (VIRBAC SA, priority 2009, published 2012).

As to `CC(=O)O[C@]1(C(C)=O)CC[C@H]2[C@@H]3C=C(Cl)C4=CC(=O)OC[C@]4(C)[C@H]3CC[C@@]21C` [osaterone acetate], in the experiment on dogs with signs of BPH [1] (five dogs with signs of BPH, D0 vs D15), the “change in serum CPSE level between before treatment and treatment completed” value is listed as “decrease in the serum CPSE level”. Further, in the experiment on dogs with signs of BPH [1] (serum, individual Dogs 1-5 with signs of BPH, D+15, 0.25-0.5 mg/kg/day for 7 days), the “CPSE (ng/ml), D + 15” value is 15 ng/mL and 21 ng/mL and 40 ng/mL and 10 ng/mL and 36 ng/mL. Moreover, the “CPSE (ng/ml), Visit 2” value in the experiment on dogs with signs of BPH [1] (serum, individual dogs C1-C5 with signs of BPH, 15 days after first sampling, 0.25-0.5 mg/kg/day for 7 days) is 15 ng/mL and 21 ng/mL and 40 ng/mL and 10 ng/mL and 36 ng/mL. Further, the “size of the prostate by digital rectal examination” value in the experiment with dogs with signs of BPH [2] is reported as “return to a normal size of the prostate”.
